Read-outs that look alike come from different tables or passages of the source. Positions of bridges follow the written chain, without caps; N, C: chain ends. Residues, ends and D or L forms follow the SMILES beside them.
Legend:
[1] = biological target: hNav1.5 (Homo sapiens, UniProt Q14524); assay: cell-based
[2] = biological target: hNav1.3 (Homo sapiens, UniProt Q9NY46); assay: cell-based; settings: IonWorks Quattro, read-out: IWQ Use Nav1.3
[3] = IonWorks Quattro, clamped to −110 mV, depolarized to −10 mV, 5 min after compound, n=2, read-out: IWQ Use Nav1.5
[4] = clamped to −110 mV, depolarized to −10 mV, 5 min after compound, n=2
[5] = IonWorks Quattro, Use, read-out: IWQ Use Nav1.5

Sequence of hNav1.5 (Q14524 whole entry, looked up): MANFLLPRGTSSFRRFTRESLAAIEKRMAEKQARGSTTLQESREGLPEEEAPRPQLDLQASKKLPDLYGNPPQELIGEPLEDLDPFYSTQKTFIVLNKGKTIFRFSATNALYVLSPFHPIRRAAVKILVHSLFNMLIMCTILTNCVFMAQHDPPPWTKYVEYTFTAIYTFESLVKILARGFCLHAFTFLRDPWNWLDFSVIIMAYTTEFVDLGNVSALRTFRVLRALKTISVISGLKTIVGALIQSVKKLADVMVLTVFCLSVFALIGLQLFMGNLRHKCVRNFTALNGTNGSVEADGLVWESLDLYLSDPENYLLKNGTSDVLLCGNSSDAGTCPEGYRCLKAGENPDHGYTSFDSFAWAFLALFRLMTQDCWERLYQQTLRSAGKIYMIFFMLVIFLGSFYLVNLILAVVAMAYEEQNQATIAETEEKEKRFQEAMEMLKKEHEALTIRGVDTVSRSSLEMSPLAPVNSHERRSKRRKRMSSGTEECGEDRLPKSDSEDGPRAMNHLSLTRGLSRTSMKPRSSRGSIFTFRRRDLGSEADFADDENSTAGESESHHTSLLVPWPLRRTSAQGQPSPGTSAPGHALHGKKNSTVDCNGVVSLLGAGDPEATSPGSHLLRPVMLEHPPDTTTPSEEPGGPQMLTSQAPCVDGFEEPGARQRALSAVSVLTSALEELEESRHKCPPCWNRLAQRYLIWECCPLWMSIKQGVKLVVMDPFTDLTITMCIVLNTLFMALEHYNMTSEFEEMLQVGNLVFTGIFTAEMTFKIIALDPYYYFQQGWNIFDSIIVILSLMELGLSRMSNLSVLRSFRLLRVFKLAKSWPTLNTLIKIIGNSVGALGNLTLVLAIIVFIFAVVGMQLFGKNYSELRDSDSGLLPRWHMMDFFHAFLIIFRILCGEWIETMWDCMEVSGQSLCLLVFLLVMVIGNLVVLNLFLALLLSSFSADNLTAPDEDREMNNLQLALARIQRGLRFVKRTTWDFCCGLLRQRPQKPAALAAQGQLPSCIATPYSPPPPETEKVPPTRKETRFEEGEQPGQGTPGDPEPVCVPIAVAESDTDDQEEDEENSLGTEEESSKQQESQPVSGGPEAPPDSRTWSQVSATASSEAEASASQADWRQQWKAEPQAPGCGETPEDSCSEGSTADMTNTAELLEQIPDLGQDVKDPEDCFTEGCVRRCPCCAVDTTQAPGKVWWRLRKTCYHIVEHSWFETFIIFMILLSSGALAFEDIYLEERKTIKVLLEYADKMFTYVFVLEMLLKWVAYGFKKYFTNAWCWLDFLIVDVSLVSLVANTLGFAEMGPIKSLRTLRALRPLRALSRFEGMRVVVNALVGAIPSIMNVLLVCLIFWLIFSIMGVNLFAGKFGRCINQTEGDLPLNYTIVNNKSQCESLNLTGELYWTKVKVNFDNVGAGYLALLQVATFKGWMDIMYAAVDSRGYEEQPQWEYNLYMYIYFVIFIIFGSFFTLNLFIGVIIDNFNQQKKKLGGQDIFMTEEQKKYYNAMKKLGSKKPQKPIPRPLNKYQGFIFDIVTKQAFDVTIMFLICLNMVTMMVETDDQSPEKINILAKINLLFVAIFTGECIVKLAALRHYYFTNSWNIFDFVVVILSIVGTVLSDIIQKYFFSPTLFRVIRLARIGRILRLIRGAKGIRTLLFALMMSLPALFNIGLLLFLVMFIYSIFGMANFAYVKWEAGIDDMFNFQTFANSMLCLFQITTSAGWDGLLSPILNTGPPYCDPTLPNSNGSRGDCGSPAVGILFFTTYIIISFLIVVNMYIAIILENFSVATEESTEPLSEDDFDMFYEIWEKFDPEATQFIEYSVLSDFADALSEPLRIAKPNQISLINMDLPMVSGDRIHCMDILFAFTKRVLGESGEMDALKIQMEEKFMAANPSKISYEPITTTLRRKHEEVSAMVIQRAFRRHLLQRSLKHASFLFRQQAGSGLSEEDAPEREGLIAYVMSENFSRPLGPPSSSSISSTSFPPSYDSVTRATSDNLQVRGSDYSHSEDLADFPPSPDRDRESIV
Sequence of hNav1.3 (Q9NY46 whole entry, looked up): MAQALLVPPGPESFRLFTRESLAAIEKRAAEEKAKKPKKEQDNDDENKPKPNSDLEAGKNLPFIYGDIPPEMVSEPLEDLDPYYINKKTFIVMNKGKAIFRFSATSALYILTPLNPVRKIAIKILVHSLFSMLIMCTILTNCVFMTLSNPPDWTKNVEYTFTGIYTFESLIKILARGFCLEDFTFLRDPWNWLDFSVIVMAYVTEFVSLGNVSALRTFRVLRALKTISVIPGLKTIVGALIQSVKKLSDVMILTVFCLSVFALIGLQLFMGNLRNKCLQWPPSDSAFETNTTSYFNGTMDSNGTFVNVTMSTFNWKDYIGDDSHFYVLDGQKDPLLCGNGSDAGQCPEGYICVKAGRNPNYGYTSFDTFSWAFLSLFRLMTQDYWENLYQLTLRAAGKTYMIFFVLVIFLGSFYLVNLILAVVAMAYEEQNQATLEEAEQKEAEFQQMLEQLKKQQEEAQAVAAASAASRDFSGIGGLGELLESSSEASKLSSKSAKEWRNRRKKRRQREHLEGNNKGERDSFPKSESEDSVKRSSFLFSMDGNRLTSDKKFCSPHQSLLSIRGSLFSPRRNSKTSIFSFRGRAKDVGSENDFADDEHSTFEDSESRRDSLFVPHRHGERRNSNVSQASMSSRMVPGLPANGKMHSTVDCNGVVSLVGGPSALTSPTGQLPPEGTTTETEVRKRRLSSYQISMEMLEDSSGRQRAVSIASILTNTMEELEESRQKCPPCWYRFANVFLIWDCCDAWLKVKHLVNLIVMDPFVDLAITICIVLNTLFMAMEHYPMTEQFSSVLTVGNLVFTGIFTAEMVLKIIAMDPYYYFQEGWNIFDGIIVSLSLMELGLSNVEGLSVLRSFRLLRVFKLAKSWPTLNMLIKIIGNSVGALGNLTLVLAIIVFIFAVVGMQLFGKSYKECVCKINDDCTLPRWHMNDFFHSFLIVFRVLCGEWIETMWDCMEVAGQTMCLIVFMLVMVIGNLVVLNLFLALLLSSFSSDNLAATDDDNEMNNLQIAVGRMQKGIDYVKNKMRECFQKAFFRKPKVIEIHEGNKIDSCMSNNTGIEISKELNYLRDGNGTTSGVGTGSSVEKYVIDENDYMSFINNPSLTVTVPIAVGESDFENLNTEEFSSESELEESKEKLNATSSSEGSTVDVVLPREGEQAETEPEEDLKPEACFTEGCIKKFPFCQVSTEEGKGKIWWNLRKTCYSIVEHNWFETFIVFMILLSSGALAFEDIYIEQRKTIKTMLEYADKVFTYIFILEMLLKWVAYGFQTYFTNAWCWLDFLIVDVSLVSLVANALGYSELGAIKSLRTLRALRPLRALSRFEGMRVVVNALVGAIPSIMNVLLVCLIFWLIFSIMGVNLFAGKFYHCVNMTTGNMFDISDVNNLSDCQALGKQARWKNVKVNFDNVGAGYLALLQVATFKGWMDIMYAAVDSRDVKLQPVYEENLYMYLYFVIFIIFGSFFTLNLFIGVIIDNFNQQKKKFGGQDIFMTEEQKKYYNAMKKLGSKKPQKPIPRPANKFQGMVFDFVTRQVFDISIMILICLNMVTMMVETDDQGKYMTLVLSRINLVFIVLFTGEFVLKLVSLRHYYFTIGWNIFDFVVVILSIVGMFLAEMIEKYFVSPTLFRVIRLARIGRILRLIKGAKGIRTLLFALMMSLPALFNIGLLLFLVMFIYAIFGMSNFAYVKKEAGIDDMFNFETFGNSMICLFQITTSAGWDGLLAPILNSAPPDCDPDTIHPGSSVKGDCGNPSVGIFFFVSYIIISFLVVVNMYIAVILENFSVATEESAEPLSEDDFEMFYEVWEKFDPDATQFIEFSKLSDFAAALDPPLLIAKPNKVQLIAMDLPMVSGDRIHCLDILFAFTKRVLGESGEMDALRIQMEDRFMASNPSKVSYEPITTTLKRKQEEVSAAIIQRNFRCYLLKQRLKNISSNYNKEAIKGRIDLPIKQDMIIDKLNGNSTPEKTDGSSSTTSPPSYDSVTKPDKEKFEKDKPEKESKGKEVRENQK

Row | SMILES | IC50 [1, 3] | IC50 [2, 4] | IC50 [1, 5] | IC50 ([2]; Use) | also measured
1 | CC[C@H](C)[C@@H]1NC(=O)[C@@H]2CSSC[C@@H]3NC(=O)[C@H](C(C)C)NC(=O)[C@H](CC(C)C)NC(=O)[C@H](CC(N)=O)NC(=O)[C@@H]4CCCN4C(=O)[C@H](CCCNC(=N)N)NC(=O)[C@H](CSSC[C@H](NC(=O)[C@@H](N)CCC(=O)O)C(=O)N[C@@H](CC(C)C)C(=O)NCC(=O)N[C@@H](Cc4ccccc4)C(=O)N[C@@H](CCSC)C(=O)N[C@@H](CCCNC(=N)N)C(=O)N[C@@H](CCCCN)C(=O)N2)NC(=O)[C@H](CSSC[C@@H](C(=O)N[C@@H](CCCCN)C(=O)N[C@@H](Cc2ccc(O)cc2)C(=O)N[C@H](C(=O)N[C@@H](Cc2ccccc2)C(N)=O)C(C)C)NC(=O)[C@H](Cc2c[nH]c4ccccc24)NC(=O)[C@H](CCCCN)NC(=O)[C@H](Cc2cnc[nH]2)NC(=O)[C@H]([C@@H](C)O)NC(=O)[C@H](CCCNC(=N)N)NC(=O)[C@H](CO)NC3=O)NC(=O)[C@H](CCCCN)NC(=O)[C@H](CC(=O)O)NC(=O)[C@H](CC(N)=O)NC(=O)[C@H](CC(=O)O)NC(=O)[C@@H]2CCCN2C1=O [SEQ ID NO: 18] (H-ECLGFMRKCIPDNDKCCRPNLVCSRTHKWCKYVF-NH2; disulfide 2-17, 9-23, 16-30) | 14.2 µM | 0.15 µM |  |  | 
2 | CC[C@H](C)[C@@H]1NC(=O)[C@@H]2CSSC[C@@H]3NC(=O)[C@H](C(C)C)NC(=O)[C@H](CC(C)C)NC(=O)[C@H](CC(N)=O)NC(=O)[C@@H]4CCCN4C(=O)[C@H](CCCNC(=N)N)NC(=O)[C@H](CSSC[C@H](NC(=O)[C@@H](N)CC(=O)O)C(=O)N[C@@H](CC(C)C)C(=O)NCC(=O)N[C@@H](Cc4ccccc4)C(=O)N[C@@H](CCSC)C(=O)N[C@@H](CCCNC(=N)N)C(=O)N[C@@H](CCCCN)C(=O)N2)NC(=O)[C@H](CSSC[C@@H](C(=O)N[C@@H](CCCCN)C(=O)N[C@@H](C)C(=O)N[C@H](C(=O)N[C@@H](Cc2ccccc2)C(N)=O)C(C)C)NC(=O)[C@H](Cc2c[nH]c4ccccc24)NC(=O)[C@H](CCCCN)NC(=O)[C@H](Cc2cnc[nH]2)NC(=O)[C@H]([C@@H](C)O)NC(=O)[C@H](CCCNC(=N)N)NC(=O)[C@H](CO)NC3=O)NC(=O)[C@H](CCCCN)NC(=O)[C@H](CC(=O)O)NC(=O)[C@H](CC(N)=O)NC(=O)[C@H](CC(=O)O)NC(=O)[C@@H]2CCCN2C1=O [compound 14] (H-DCLGFMRKCIPDNDKCCRPNLVCSRTHKWCKAVF-NH2; disulfide 2-17, 9-23, 16-30) |  |  |  |  | IC50 ([1]; Table 25, IonWorks Quattro, use, […], read-out: IWQ Use Nav1.5): 20.6 µM; IC50 ([2]; Table 25, use, […]): 0.77 µM
3 | CC[C@H](C)[C@@H]1NC(=O)[C@@H]2CSSC[C@@H]3NC(=O)[C@H](C(C)C)NC(=O)[C@H](CC(C)C)NC(=O)[C@H](CC(N)=O)NC(=O)[C@H](CCCCN)NC(=O)[C@H](CCCNC(=N)N)NC(=O)[C@H](CSSC[C@H](NC(=O)[C@@H](N)CC(=O)O)C(=O)N[C@@H](CC(C)C)C(=O)NCC(=O)N[C@@H](Cc4ccccc4)C(=O)N[C@@H](CCSC)C(=O)N[C@@H](CCCNC(=N)N)C(=O)N[C@@H](CCCCN)C(=O)N2)NC(=O)[C@H](CSSC[C@@H](C(=O)N[C@@H](CCCCN)C(=O)N[C@@H](Cc2ccc(O)cc2)C(=O)N[C@H](C(=O)N[C@@H](Cc2ccccc2)C(N)=O)C(C)C)NC(=O)[C@H](Cc2c[nH]c4ccccc24)NC(=O)[C@H](CCCCN)NC(=O)[C@H](Cc2cnc[nH]2)NC(=O)[C@H]([C@@H](C)O)NC(=O)[C@H](CCCNC(=N)N)NC(=O)[C@H](CO)NC3=O)NC(=O)[C@H](CCCCN)NC(=O)[C@H](CC(=O)O)NC(=O)[C@H](CC(N)=O)NC(=O)[C@H](CC(=O)O)NC(=O)[C@@H]2CCCN2C1=O [compound 50] (H-DCLGFMRKCIPDNDKCCRKNLVCSRTHKWCKYVF-NH2; disulfide 2-17, 9-23, 16-30) |  |  | 10.6 µM | 0.18 µM | 
4 | CC[C@H](C)[C@@H]1NC(=O)[C@@H]2CSSC[C@@H]3NC(=O)[C@H](CCCNC(=N)N)NC(=O)[C@H](CC(C)C)NC(=O)[C@H](CC(N)=O)NC(=O)[C@@H]4CCCN4C(=O)[C@H](CCCNC(=N)N)NC(=O)[C@H](CSSC[C@H](NC(=O)[C@@H](N)CC(=O)O)C(=O)N[C@@H](CC(C)C)C(=O)NCC(=O)N[C@@H](Cc4ccccc4)C(=O)N[C@@H](CCSC)C(=O)N[C@@H](CCCNC(=N)N)C(=O)N[C@@H](CCCCN)C(=O)N2)NC(=O)[C@H](CSSC[C@@H](C(=O)N[C@@H](CCCCN)C(=O)N[C@@H](Cc2ccc(O)cc2)C(=O)N[C@H](C(=O)N[C@@H](Cc2ccccc2)C(N)=O)C(C)C)NC(=O)[C@H](Cc2c[nH]c4ccccc24)NC(=O)[C@H](CCCCN)NC(=O)[C@H](Cc2cnc[nH]2)NC(=O)[C@H]([C@@H](C)O)NC(=O)[C@H](CCCNC(=N)N)NC(=O)[C@H](CO)NC3=O)NC(=O)[C@H](CCCCN)NC(=O)[C@H](CC(=O)O)NC(=O)[C@H](CC(N)=O)NC(=O)[C@H](CC(=O)O)NC(=O)[C@@H]2CCCN2C1=O [compound 158] (H-DCLGFMRKCIPDNDKCCRPNLRCSRTHKWCKYVF-NH2; disulfide 2-17, 9-23, 16-30) |  |  |  | 0.03 µM | IC50 ([1]; IWQ Use Nav1.5 (μM)): 8.2 µM
5 | CC[C@H](C)[C@@H]1NC(=O)[C@@H]2CSSC[C@@H]3NC(=O)[C@H](C(C)C)NC(=O)[C@H](CC(C)C)NC(=O)[C@H](CCCNC(=N)N)NC(=O)[C@@H]4CCCN4C(=O)[C@H](CCCNC(=N)N)NC(=O)[C@H](CSSC[C@H](NC(=O)[C@@H](N)CC(=O)O)C(=O)N[C@@H](CC(C)C)C(=O)NCC(=O)N[C@@H](Cc4ccccc4)C(=O)N[C@@H](CCSC)C(=O)N[C@@H](CCCNC(=N)N)C(=O)N[C@@H](CCCCN)C(=O)N2)NC(=O)[C@H](CSSC[C@@H](C(=O)N[C@@H](CCCCN)C(=O)N[C@@H](Cc2ccc(O)cc2)C(=O)N[C@H](C(=O)N[C@@H](Cc2ccccc2)C(N)=O)C(C)C)NC(=O)[C@H](Cc2c[nH]c4ccccc24)NC(=O)[C@H](CCCCN)NC(=O)[C@H](Cc2cnc[nH]2)NC(=O)[C@H]([C@@H](C)O)NC(=O)[C@H](CCCNC(=N)N)NC(=O)[C@H](CO)NC3=O)NC(=O)[C@H](CCCCN)NC(=O)[C@H](CC(=O)O)NC(=O)[C@H](CC(N)=O)NC(=O)[C@H](CC(=O)O)NC(=O)[C@@H]2CCCN2C1=O [compound 69] (H-DCLGFMRKCIPDNDKCCRPRLVCSRTHKWCKYVF-NH2; disulfide 2-17, 9-23, 16-30) |  |  | 14.9 µM | 0.08 µM | 
6 | CC[C@H](C)[C@@H]1NC(=O)[C@@H]2CSSC[C@@H]3NC(=O)[C@H](C(C)C)NC(=O)[C@H](CC(C)C)NC(=O)[C@H](CC(N)=O)NC(=O)[C@@H]4CCCN4C(=O)[C@H](CCCNC(=N)N)NC(=O)[C@H](CSSC[C@H](NC(=O)[C@@H](N)CC(=O)O)C(=O)N[C@@H](CC(C)C)C(=O)N[C@@H](Cc4c[nH]c5ccccc45)C(=O)N[C@@H](Cc4ccccc4)C(=O)N[C@@H](CCSC)C(=O)N[C@@H](CCCNC(=N)N)C(=O)N[C@@H](CCCCN)C(=O)N2)NC(=O)[C@H](CSSC[C@@H](C(=O)N[C@@H](CCCCN)C(=O)N[C@@H](Cc2ccc(O)cc2)C(=O)N[C@H](C(=O)N[C@@H](Cc2ccccc2)C(N)=O)C(C)C)NC(=O)[C@H](Cc2c[nH]c4ccccc24)NC(=O)[C@H](CCCCN)NC(=O)[C@H](Cc2cnc[nH]2)NC(=O)[C@H]([C@@H](C)O)NC(=O)[C@H](CCCNC(=N)N)NC(=O)[C@H](CO)NC3=O)NC(=O)[C@H](CCCCN)NC(=O)[C@H](CC(=O)O)NC(=O)[C@H](CC(N)=O)NC(=O)[C@H](CC(=O)O)NC(=O)[C@@H]2CCCN2C1=O [SEQ ID NO: 169] (H-DCLWFMRKCIPDNDKCCRPNLVCSRTHKWCKYVF-NH2; disulfide 2-17, 9-23, 16-30) | 10.3 µM | 0.03 µM |  |  | 
7 | CC[C@H](C)[C@@H]1NC(=O)[C@@H]2CSSC[C@@H]3NC(=O)[C@H](C(C)C)NC(=O)[C@H](CC(C)C)NC(=O)[C@H](CC(N)=O)NC(=O)[C@@H]4CCCN4C(=O)[C@H](CCCNC(=N)N)NC(=O)[C@H](CSSC[C@H](NC(=O)[C@@H](N)CC(=O)O)C(=O)N[C@@H](CC(C)C)C(=O)NCC(=O)N[C@@H](Cc4ccccc4)C(=O)N[C@@H](CCC(=O)O)C(=O)N[C@@H](CCCNC(=N)N)C(=O)N[C@@H](CCCCN)C(=O)N2)NC(=O)[C@H](CSSC[C@@H](C(=O)N[C@@H](CCCCN)C(=O)N[C@@H](Cc2ccc(O)cc2)C(=O)N[C@H](C(=O)N[C@@H](Cc2ccccc2)C(N)=O)C(C)C)NC(=O)[C@H](Cc2c[nH]c4ccccc24)NC(=O)[C@H](CCCCN)NC(=O)[C@H](Cc2cnc[nH]2)NC(=O)[C@H]([C@@H](C)O)NC(=O)[C@H](CCCNC(=N)N)NC(=O)[C@H](CO)NC3=O)NC(=O)[C@H](CCCCN)NC(=O)[C@H](CC(=O)O)NC(=O)[C@H](CC(N)=O)NC(=O)[C@H](CC(=O)O)NC(=O)[C@@H]2CCCN2C1=O [SEQ ID NO: 144] (H-DCLGFERKCIPDNDKCCRPNLVCSRTHKWCKYVF-NH2; disulfide 2-17, 9-23, 16-30) | 9.39 µM | 20.4 µM |  |  | 
8 | CC[C@H](C)[C@@H]1NC(=O)[C@@H]2CSSC[C@@H]3NC(=O)[C@H](C(C)C)NC(=O)[C@H](CC(C)C)NC(=O)[C@H](CC(N)=O)NC(=O)[C@@H]4CCCN4C(=O)[C@H](CCCNC(=N)N)NC(=O)[C@H](CSSC[C@H](NC(=O)[C@@H](N)CC(=O)O)C(=O)N[C@@H](CC(C)C)C(=O)NCC(=O)N[C@@H](Cc4ccccc4)C(=O)N[C@@H](CCSC)C(=O)N[C@@H](CCCNC(=N)N)C(=O)N[C@@H](CCCCN)C(=O)N2)NC(=O)[C@H](CSSC[C@@H](C(=O)N[C@@H](CCCCN)C(=O)N[C@@H](Cc2ccc(O)cc2)C(=O)N[C@H](C(=O)N[C@@H](Cc2ccccc2)C(N)=O)C(C)C)NC(=O)[C@H](Cc2c[nH]c4ccccc24)NC(=O)[C@H](CCCCN)NC(=O)[C@H](Cc2cnc[nH]2)NC(=O)[C@H]([C@@H](C)O)NC(=O)[C@H](CCCNC(=N)N)NC(=O)[C@H](CO)NC3=O)NC(=O)[C@H](CCCCN)NC(=O)[C@H](CC(=O)O)NC(=O)[C@H](CC(N)=O)NC(=O)[C@H](CCCNC(=N)N)NC(=O)[C@@H]2CCCN2C1=O [compound 67] (H-DCLGFMRKCIPRNDKCCRPNLVCSRTHKWCKYVF-NH2; disulfide 2-17, 9-23, 16-30) |  |  | 5 µM | 0.14 µM | 
